Reference: patent EP0427860A1, “NEW IMIDAZOLE DERIVATIVES, PRODUCTION THEREOF, AND USES THEREOF AS MEDICINES” (Kyoto Pharmaceutical Industries, Ltd., priority 1989, dated 1990)

Key:
[1] = system: platelet rich plasma (PRP) from rabbits; experiment: Inhibitory activities on platelet aggregation (arachidonic acid-induced, transmittance); format: cell-based; details: test drug 10^-6 M, rabbit PRP, aggregation induced by arachidonic acid (0.1 mM); for inhibition at 1 µM: Oryctolagus cuniculus, Platelet, read-out: Experiment 1 10^-6 M inhibition (%)
Method: Experiment 1 (Inhibitory activities on platelet aggregation)
Platelet aggregation of platelet rich plasma (PRP) from rabbits was measured with the use of an NKK- hematracer (Niko Bioscience). That is, to PRP (200µ 1) was added a test drug or a solvent at 37°C while stirring at 1000 rpm, and an aggregation-inducing agent was added thereto 1 minute later, to measure the changes in transmittance caused by the platelet aggregation. Arachidonic acid (0.1 mM) was used as the aggregation-inducing agent.

[2] = system: lipoperoxide production in rat brain; experiment: Inhibitory activities on lipoperoxide production in rat brain (MDA yield, TBA method); format: biochemical; details: rat cerebrum suspension, 37° C for 30 minutes, lipoperoxide measured as MDA yield; read-out: Experiment 2 IC50 value
Method: Experiment 2 (Inhibitory activities on lipoperoxide production in rat brain)
To male rats weighing about 300 g was intraperitoneally administered 100 mg/kg of sodium pentobar- bital and the rats were exsanguinated to death while anesthetized, after which the cerebrum was extracted. The extracted cerebrum was washed with ice-cooled physiological saline, dried gently, and weighed. Thereto was added 5-fold amount by weight of a 50 mM phosphatesaline buffer (pH 7.4), which was then suspended by an ultradisperser under ice-cooling, followed by centrifugation at 1300 g and at 4 C for 10 minutes. The supernatant was 5-fold diluted with the above buffer, and used as a suspension for measurement.
The suspension to which the test drug had been added at 1/100 volume was incubated at 37° C for 30 minutes, and the amount of the resulting lipoperoxide was measured as an MDA yield. The assay of MDA was conducted by a modified method based on Smith et al., and the absorbance of the TBA reaction product at 532 nm was measured.

[3] = system: TXB2; experiment: Assay of TXB2 in serum after oral administration; format: in vivo; details: 10 mg/kg orally, male rats, blood taken 1 hour later, incubated at 37° C for 90 minutes, Control 192.5
Method: Experiment 3 (Assay of TXB2)
The test drug was orally administered to male rats, and 1 hour later, a blood sample was taken from ventral aorta via a polyethylene tube while anesthetized with ether. The blood taken was immediately incubated at 37° C for 90 minutes, and TXB2 was extracted from the serum separated, followed by assay using a [^3H]RIA Kit.

Molecule | inhibition at 1 µM [1] [%] | Experiment 1 10^-6 M inhibition (%) [1] [%] | IC50 [2] [µM] | TXB2 [3] [ng/mL]
CCCCCCCOc1ccc2c(c1)C(CCn1ccnc1)CN2CCC(=O)OCC (stereo not shown) [Example 22] | 37 | – | – | –
Ethyl 3-[2-(1 H-imidazol-1-yl)ethyl]-1-indolineacetate [Example 5] | – | 20.3 | 25 | –
CCCc1ccc2c(c1)C(CCn1ccnc1)CN2CCC(=O)OCC (stereo not shown) [Example 12] | 19.7 | – | 4.8 | –
CCCCCOc1ccc2c(c1)C(CCn1ccnc1)CN2CCC(=O)O (stereo not shown) [Example 21] | 5.5 | – | 1.84 | 6.7
O=C(O)CCN1CC(CCn2ccnc2)c2cc(C3CCCCC3)ccc21 (stereo not shown) [Example 17] | 15.7 | – | 2.05 | –
C=CCOc1ccc2c(c1)C(CCn1ccnc1)CN2CCC(=O)OCC (stereo not shown) [Example 30] | 28.4 | – | – | –
C=CCOc1ccc2c(c1)C(CCn1ccnc1)CN2CCC(=O)O (stereo not shown) [Example 31] | 0.2 | – | 20.3 | –
CCCCCCCCCCCCOc1ccc2c(c1)C(CCn1ccnc1)CN2CCC(=O)O (stereo not shown) [Example 29] | 12.1 | – | 0.24 | –
CCOC(=O)CCN1CC(CCn2ccnc2)c2ccccc21 (stereo not shown) [Example 1] | 40.3 | – | 93 | –
CCCCCCOc1ccc2c(c1)C(CCn1ccnc1)CN2CCC(=O)O (stereo not shown) [Example 9, 5-Hexyloxy-3-[2-(1H-imidazol-1-yl)ethyl]-1-indolinepropionic acid] | 28.3 | – | – | –
O=C(O)CCCC/C=C(\c1ccccc1)c1cccnc1 [CV-4151, reference compound] | – | – | – | 11.0
CCCCCCOc1ccc2c(c1)C(CCn1ccnc1)CN2CCC(=O)OCC (stereo not shown) [Example 8, Ethyl 5-hexyloxy-3-[2-(1 H-imidazol-1-yl)ethyl]-1-indolinepropionate] | 20.8 | – | 2.6 | –
CCCOc1ccc2c(c1)C(CCn1ccnc1)CN2CCC(=O)OCC (stereo not shown) [Example 18] | 21.8 | – | – | –
O=C(O)CCN1CC(CCn2ccnc2)c2ccccc21 (stereo not shown) [Example 2, 3-[2-(1 H-Imidazol-1-yl)ethyl]-1-indolinepropionic acid] | 8.7 | – | – | –
CCCOc1ccc2c(c1)C(CCn1ccnc1)CN2CCC(=O)O (stereo not shown) [Example 19] | 3.6 | – | 19.4 | –
CC(C)c1ccc2c(c1)C(CCn1ccnc1)CN2CCC(=O)O (stereo not shown) [Example 15] | 1.6 | – | 24.8 | –
CCOC(=O)CCN1CC(CCn2ccnc2)c2cc(OC)ccc21 (stereo not shown) [Example 10] | 54.5 | – | 18.7 | –
COc1ccc2c(c1)C(CCn1ccnc1)CN2CCC(=O)O (stereo not shown) [Example 11] | 36 | – | 73 | –
O=C(O)/C=C/c1ccc(Cn2ccnc2)cc1 [OKY-046, reference compound] | 4 | – | – | –
CCCCCOc1ccc2c(c1)C(CCn1ccnc1)CN2CCC(=O)OCC (stereo not shown) [Example 20] | 45.2 | – | 2.05 | 5.1
CCCCCCCCCOc1ccc2c(c1)C(CCn1ccnc1)CN2CCC(=O)O (stereo not shown) [Example 27] | 27 | – | 0.26 | 4.8
CCOC(=O)CCN1CC(CCn2ccnc2)c2cc(C3CCCCC3)ccc21 (stereo not shown) [Example 16] | 2.1 | – | – | –
CCOC(=O)CCN1CC(CCn2ccnc2)c2cc(C(C)C)ccc21 (stereo not shown) [Example 14] | 14.5 | – | 6 | –
CCCc1ccc2c(c1)C(CCn1ccnc1)CN2CCC(=O)O (stereo not shown) [Example 13] | 10.4 | – | 21.9 | –
CCCCCCCOc1ccc2c(c1)C(CCn1ccnc1)CN2CCC(=O)O (stereo not shown) [Example 23] | 11.5 | – | 0.25 | –
CCCCCCCCCOc1ccc2c(c1)C(CCn1ccnc1)CN2CCC(=O)OCC (stereo not shown) [Example 26] | 40.5 | – | – | –
